# Tested on: endogenous cellular STAT1 (phosphorylated at Tyr701) in NCI-H1373 cells
# Experiment: Phospho-STAT1 (Tyr701) LANCE Ultra TR-FRET Detection Assay
# Format: cell-based
# Conditions: Homo sapiens, NCI-H1373, 48 h, phospho-STAT1 (Tyr701) induction, read-out: NH1373 pSTAT1 EC50
row,EC50 [nM],Structure (SMILES)
1,4.13,"Nc1nc(-c2cc3ccn(CCC[C@H](CCOC(F)F)Nc4cn[nH]c(=O)c4C(F)(F)F)c(=O)c3cc2F)ncc1C(F)(F)F [Example 467, 6-[4-amino-5-(trifluoromethyl)pyrimidin-2-yl]-2-[(4R)-6-(difluoromethoxy)-4-[[6-oxo-5-(trifluoromethyl)-1H-pyridazin-4-yl]amino]hexyl]-7-fluoro-isoquinolin-1-one]"
2,42.5,"O=c1[nH]ncc(N[C@H](CCCn2cnc3cc(-c4ncc(C(F)F)cn4)c(F)cc3c2=O)C2CC2)c1C(F)(F)F [Example 468, 3-[(4R)-4-cyclopropyl-4-[[6-oxo-5-(trifluoromethyl)-1H-pyridazin-4-yl]amino]butyl]-7-[5-(difluoromethyl)pyrimidin-2-yl]-6-fluoro-quinazolin-4-one]"
3,14.5,"Nc1nc(-c2cc3ncn(CCC[C@@H](Nc4cn[nH]c(=O)c4C(F)(F)F)C4CC4)c(=O)c3cc2F)ncc1C(F)(F)F [Example 469, 7-[4-amino-5-(trifluoromethyl)pyrimidin-2-yl]-3-[(4R)-4-cyclopropyl-4-[[6-oxo-5-(trifluoromethyl)-1H-pyridazin-4-yl]amino]butyl]-6-fluoro-quinazolin-4-one]"
4,39.3,"O=c1[nH]ncc(N[C@H](CCCn2cnc3cc(-c4ncc(Cl)cn4)c(F)cc3c2=O)C2CC2)c1C(F)(F)F [Example 470, 7-(5-chloropyrimidin-2-yl)-3-[(4R)-4-cyclopropyl-4-[[6-oxo-5-(trifluoromethyl)-1H-pyridazin-4-yl]amino]butyl]-6-fluoro-quinazolin-4-one]"
5,23.2,"O=c1[nH]ncc(N[C@H](CCCn2cnc3cc(-c4ncc(C(F)(F)F)cn4)c(F)cc3c2=O)C2CC2)c1C(F)(F)F [Example 471, 3-[(4R)-4-cyclopropyl-4-[[6-oxo-5-(trifluoromethyl)-1H-pyridazin-4-yl]amino]butyl]-6-fluoro-7-[5-(trifluoromethyl)pyrimidin-2-yl]quinazolin-4-one]"
6,51.6,"Nc1nc(-c2cc3ncn(CCC[C@@H](Nc4cn[nH]c(=O)c4C(F)(F)F)C4CC4)c(=O)c3cc2F)ncc1OC(F)F [Example 472, 7-[4-amino-5-(difluoromethoxy)pyrimidin-2-yl]-3-[(4R)-4-cyclopropyl-4-[[6-oxo-5-(trifluoromethyl)-1H-pyridazin-4-yl]amino]butyl]-6-fluoro-quinazolin-4-one]"
7,969,"CN(C)C[C@@H](CCCn1ccc2cc(-c3ncc(C(F)(F)F)cn3)c(F)cc2c1=O)Nc1cn[nH]c(=O)c1C(F)(F)F [Example 473, 2-[(4R)-5-(dimethylamino)-4-[[6-oxo-5-(trifluoromethyl)-1H-pyridazin-4-yl]amino]pentyl]-7-fluoro-6-[5-(trifluoromethyl)pyrimidin-2-yl]isoquinolin-1-one]"
8,14.8,"Cc1nnc([C@@H](CCCn2ccc3cc(-c4ncc(C(F)(F)F)cn4)c(F)c(F)c3c2=O)Nc2cn[nH]c(=O)c2C(F)(F)F)o1 [Example 474, 7,8-difluoro-2-[(4R)-4-(5-methyl-1,3,4-oxadiazol-2-yl)-4-[[6-oxo-5-(trifluoromethyl)-1H-pyridazin-4-yl]amino]butyl]-6-[5-(trifluoromethyl)pyrimidin-2-yl]isoquinolin-1-one]"
9,10.6,"O=c1[nH]ncc(N[C@H](CCCn2ccc3cc(-c4ncc(C(F)(F)F)cn4)c(F)c(F)c3c2=O)c2nnc(C3CC3)o2)c1C(F)(F)F [Example 475, 2-[(4R)-4-(5-cyclopropyl-1,3,4-oxadiazol-2-yl)-4-[[6-oxo-5-(trifluoromethyl)-1H-pyridazin-4-yl]amino]butyl]-7,8-difluoro-6-[5-(trifluoromethyl)pyrimidin-2-yl]isoquinolin-1-one]"
10,20.3,"O=c1[nH]ncc(N[C@H](CCCn2ccc3cc(-c4ncc(C(F)(F)F)cn4)c(F)cc3c2=O)c2nnc(C3CC3)o2)c1C(F)(F)F [Example 476, 2-[(4R)-4-(5-cyclopropyl-1,3,4-oxadiazol-2-yl)-4-[[6-oxo-5-(trifluoromethyl)-1H-pyridazin-4-yl]amino]butyl]-7-fluoro-6-[5-(trifluoromethyl)pyrimidin-2-yl]isoquinolin-1-one]"
11,18.4,"O=c1[nH]ncc(N[C@H](CCCn2ccc3cc(-c4ncc(C(F)(F)F)cn4)c(F)cc3c2=O)c2nnc(C(F)F)o2)c1C(F)(F)F [Example 477, 2-[(4R)-4-[5-(difluoromethyl)-1,3,4-oxadiazol-2-yl]-4-[[6-oxo-5-(trifluoromethyl)-1H-pyridazin-4-yl]amino]butyl]-7-fluoro-6-[5-(trifluoromethyl)pyrimidin-2-yl]isoquinolin-1-one]"
12,5.25,"C[C@@H](CC(O)Cn1ccc2cc(-c3ncc(C(F)(F)F)cn3)c(F)cc2c1=O)Nc1cn[nH]c(=O)c1C(F)(F)F (stereo partly drawn) [Example 478, 7-fluoro-2-[(4S)-2-hydroxy-4-[[6-oxo-5-(trifluoromethyl)-1H-pyridazin-4-yl]amino]pentyl]-6-[5-(trifluoromethyl)pyrimidin-2-yl]isoquinolin-1-one]"
13,3.24,"O=c1[nH]ncc(N[C@H]2CCC[C@@H](Cn3cc(F)c4cc(-c5ncc(C(F)(F)F)cn5)c(F)cc4c3=O)C2)c1C(F)(F)F [Example 481, 4,7-difluoro-2-(((1R,3S)-3-((6-oxo-5-(trifluoromethyl)-1,6-dihydropyridazin-4-yl)amino)cyclohexyl)methyl)-6-(5-(trifluoromethyl)pyrimidin-2-yl)isoquinolin-1(2H)-one]"
14,1.94,"O=c1[nH]ncc(N[C@H]2CCC[C@@H](Cn3cc(F)c4cc(-c5ncc(C(F)F)cn5)c(F)cc4c3=O)C2)c1C(F)(F)F [Example 482, 6-(5-(difluoromethyl)pyrimidin-2-yl)-4,7-difluoro-2-(((1R,3S)-3-((6-oxo-5-(trifluoromethyl)-1,6-dihydropyridazin-4-yl)amino)cyclohexyl)methyl)isoquinolin-1(2H)-one]"
15,4.71,"N#Cc1cn(C[C@@H]2CCC[C@H](Nc3cn[nH]c(=O)c3C(F)(F)F)C2)c(=O)c2cc(F)c(-c3ncc(C(F)(F)F)cn3)cc12 [Example 483, 7-fluoro-1-oxo-2-(((1R,3S)-3-((6-oxo-5-(trifluoromethyl)-1,6-dihydropyridazin-4-yl)amino)cyclohexyl)methyl)-6-(5-(trifluoromethyl)pyrimidin-2-yl)-1,2-dihydroisoquinoline-4-carbonitrile]"
16,5.46,"Cc1cn(C[C@@H]2CCC[C@H](Nc3cn[nH]c(=O)c3C(F)(F)F)C2)c(=O)c2cc(F)c(-c3ncc(C(F)(F)F)cn3)cc12 [Example 485, 7-fluoro-4-methyl-2-(((1R,3S)-3-((6-oxo-5-(trifluoromethyl)-1,6-dihydropyridazin-4-yl)amino)cyclohexyl)methyl)-6-(5-(trifluoromethyl)pyrimidin-2-yl)isoquinolin-1(2H)-one]"
17,95.8,"Nc1cn(C[C@@H]2CCC[C@H](Nc3cn[nH]c(=O)c3C(F)(F)F)C2)c(=O)c2cc(F)c(-c3ncc(C(F)(F)F)cn3)cc12 [Example 486, 4-amino-7-fluoro-2-(((1R,3S)-3-((6-oxo-5-(trifluoromethyl)-1,6-dihydropyridazin-4-yl)amino)cyclohexyl)methyl)-6-(5-(trifluoromethyl)pyrimidin-2-yl)isoquinolin-1(2H)-one]"
18,0.51,O=c1[nH]ncc(N[C@H]2CCC[C@@H](Cn3cnc4cc(-c5nc6ccccn6n5)c(F)cc4c3=O)C2)c1C(F)(F)F [Example 487]
19,0.51,"O=c1[nH]ncc(N[C@H]2CCC[C@@H](Cn3ccc4cc(-c5nc6ccccn6n5)c(F)cc4c3=O)C2)c1C(F)(F)F [Example 488, 6-([1,2,4]triazolo[1,5-a]pyridin-2-yl)-7-fluoro-2-(((1R,3S)-3-((6-oxo-5-(trifluoromethyl)-1,6-dihydropyridazin-4-yl)amino)cyclohexyl)methyl)isoquinolin-1(2H)-one]"
20,0.51,"O=c1[nH]ncc(N[C@H](CCCn2ccc3cc(-c4nc5ccccn5n4)c(F)cc3c2=O)COC(F)F)c1C(F)(F)F [Example 489, (R)-6-([1,2,4]triazolo[1,5-a]pyridin-2-yl)-2-(5-(difluoromethoxy)-4-((6-oxo-5-(trifluoromethyl)-1,6-dihydropyridazin-4-yl)amino)pentyl)-7-fluoroisoquinolin-1(2H)-one]"
21,1,"O=c1[nH]ncc(N[C@H](CCCn2cnc3cc(-c4nc5ccccn5n4)c(F)cc3c2=O)COC(F)F)c1C(F)(F)F [Example 490, (R)-7-([1,2,4]triazolo[1,5-a]pyridin-2-yl)-3-(5-(difluoromethoxy)-4-((6-oxo-5-(trifluoromethyl)-1,6-dihydropyridazin-4-yl)amino)pentyl)-6-fluoroquinazolin-4(3H)-one]"
22,50.5,"Cn1nc(-c2cc3ccn(C[C@@H]4CCC[C@H](Nc5cn[nH]c(=O)c5C(F)(F)F)C4)c(=O)c3cc2F)cc1C(F)(F)F [Example 491, 7-fluoro-6-[1-methyl-5-(trifluoromethyl)pyrazol-3-yl]-2-[[(1R,3S)-3-[[6-oxo-5-(trifluoromethyl)-1H-pyridazin-4-yl]amino]cyclohexyl]methyl]isoquinolin-1-one]"
23,7,"COc1cnc(-c2cc3ccn(C[C@@H]4CCC[C@H](Nc5cn[nH]c(=O)c5C(F)(F)F)C4)c(=O)c3cc2F)nc1 [Example 492, 7-fluoro-6-(5-methoxypyrimidin-2-yl)-2-[[(1R,3S)-3-[[6-oxo-5-(trifluoromethyl)-1H-pyridazin-4-yl]amino]cyclohexyl]methyl]isoquinolin-1-one]"
24,29,"O=c1[nH]ncc(N[C@H]2CCC[C@@H](Cn3ccc4cc(-c5ncc(OCCO)cn5)c(F)cc4c3=O)C2)c1C(F)(F)F [Example 495, 7-fluoro-6-[5-(2-hydroxyethoxy)pyrimidin-2-yl]-2-[[(1R,3S)-3-[[6-oxo-5-(trifluoromethyl)-1H-pyridazin-4-yl]amino]cyclohexyl]methyl]isoquinolin-1-one]"
25,5.5,"O=c1[nH]ncc(N[C@H]2CCC[C@@H](Cn3ccc4cc(-c5cc6c(cn5)C(F)(F)CC6)c(F)cc4c3=O)C2)c1C(F)(F)F [Example 496, 6-(7,7-difluoro-5,6-dihydrocyclopenta[c]pyridin-3-yl)-7-fluoro-2-[[(1R,3S)-3-[[6-oxo-5-(trifluoromethyl)-1H-pyridazin-4-yl]amino]cyclohexyl]methyl]isoquinolin-1-one]"

# From patent US12459922B2 (Gilead Sciences, Inc., priority 2022, dated 2025)
